According to US7605190B2, “Polymerizable compositions with acylgermanium compounds” (Ivoclar Vivadent AG, priority 2006, dated 2009):
Like-named read-outs stand apart in the source and are kept apart here.

Tests used:
[1] = Photoinitiator activity by photo-DSC
Procedure: The activity of the photoinitiators was measured by means of photo-DSC (Differential Scanning Calorimetry) measurements on a DSC-50 device from Shimadzu, wherein the samples were irradiated alternatively with different dental lamps (Astalis 3: halogen lamp, wavelength range 400-500 nm, intensity 530 mW/cm^2; Bluephase C8: LED, wavelength range 430-490 nm, intensity 1100 mW/cm^2; Ivoclar Vivadent AG). The activity is characterized by the time of peak maximum (tmax), the polymerization rate (RP) which corresponds to the peak height, and the double bond conversion (DBC). The respective photoinitiators were dissolved in a resin mixture of D3MA:UDMA:bis-GMA=1:1:1 and then measured in an aluminum crucible by means of DSC. […]

[2] = Absorption maximum (UV-VIS); format: physicochemical; conditions: own acylgermanium photoinitiators
[3] = known comparison photoinitiators; cited from earlier work
[4] = Astralis 3 lamp (400-500 nm), 0.022 mmol PI per gram of resin
[5] = Bluephase C8 lamp (430-490 nm), 0.022 mmol PI per gram of resin

Row | Compound | reactivity compared with camphorquinone/amine ([1]; 15-fold dilution of the initiator) | DBC [1, 4] [%] | Rp × 10^−3 [1, 4] | tmax [1, 4] [s] | DBC [1, 5] [%] | Rp × 10^−3 [1, 5] | tmax [1, 5] [s] | curing time compared with campherquinone/amine ([1]; D3MA:UDMA:bis-GMA=1:1:1) | DBC ([1]; PI concentration 0.0014 mmol/g) [%] | Rp × 10^−3 ([1]; PI concentration 0.0014 mmol/g) | tmax ([1]; PI concentration 0.0014 mmol/g) [s] | DBC ([1]; PI concentration 0.0055 mmol/g) [%] | Rp × 10^−3 ([1]; PI concentration 0.0055 mmol/g) | tmax ([1]; PI concentration 0.0055 mmol/g) [s] | polymerization rate (Rp) relative to camphorquinone in combination with an amine accelerator ([1]; same formulation, D3MA:UDMA:bis-GMA=1:1:1) | absorption maximum [2] [nm] | absorption maximum [3] [nm]
1 | C[CH2][Ge]([CH2]C)([C](=O)c1ccccc1)[C](=O)c1ccccc1 [Bis-AG, bisbenzoyldiethylgermanium] | comparable with camphorquinone/amine | 84 | 99.2 mol/(l × s) | 7.8 | 72 | 98.5 mol/(l × s) | 7.8 | halved | 56 | 61.0 mol/(l × s) | 12 | 66 | 85.6 mol/(l × s) | 9 | almost double | 418.5 | –
2 | O=[C](c1ccccc1)[Ge]1([C](=O)c2ccccc2)[CH2]CCC[CH2]1 [Example 9, 1,1-bisbenzoyl-germinane] | – | – | – | – | – | – | – | – | – | – | – | – | – | – | – | 418.1 | –
3 | Cc1cc(C)c(C(=O)P(=O)(C(=O)c2c(C)cc(C)cc2C)c2ccccc2)c(C)c1 [Irg 819, bis(2,4,6-trimethylbenzoyl)phenylphosphine oxide, reference compound] | – | 59 | 67.5 mol/(l × s) | 11 | 45 | 43.5 mol/(l × s) | 17 | – | 42 | 30.4 mol/(l × s) | 23 | 48 | 48.3 mol/(l × s) | 14 | – | – | 397
4 | [CH3][Ge]([CH3])([CH3])[C](=O)c1ccccc1 [Mono-AG, benzoyltrimethylgermanium] | – | 56 | 51.0 mol/(l × s) | 16 | 49 | 48.3 mol/(l × s) | 16 | – | 30 | 16.4 mol/(l × s) | 52 | 48 | 36.2 mol/(l × s) | 24 | – | 411.5 | –
5 | CC12CCC(C(=O)C1=O)C2(C)C (centres unmarked) [camphorquinone] | – | – | – | – | – | – | – | – | – | – | – | – | – | – | – | – | 468
